Results: patent US20140366440A1, “METHOD FOR PRODUCING CLONE SEEDLINGS” (OKAYAMA PREFECTURE, priority 2009, published 2014)

Experiments:
E. uro-grandis B = test: Rooting of cuttings, oxidized glutathione solution sprayed to phylloplane; type: in vivo, crossbreed of eucalyptus urophylla and eucalyptus grandis; conditions: for Rooting rate (%): 88 test pieces; for Number of rooted shoots: of 88 test pieces
Description: Oxidized glutathione was applied to a phylloplane of a cutting. That is, the cutting was prepared in the same way as that in Example 5, except that a mother tree of the cutting was E. uro-grandis (Line name: B). Then a base of the cutting was planted to the supporter similar to Example 5. An oxidized glutathione solution was prepared in the same way as Example 5, and, immediately after the base was planted, the oxidized glutathione solution was sprayed to the phylloplane in the form of a mist by use of a spray etc. A spray amount of the glutathione solution was set to about 1.1 ml per shoot. A breeding condition after planting the shoot was similar to Example 5, and a rooting rate was calculated in the same way as Example 5.
A seedling was bred in the same way as Example 8, except that a solution having an oxidized glutathione concentration of 500 mg/L was used as the oxidized glutathione solution.
A seedling was bred in the same way as Example 8, except that a solution having an oxidized glutathione concentration of 1000 mg/L was used as the oxidized glutathione solution.

E. globulus (Clone B) = test: Rooting of shoots with wounded base in rooting medium containing oxidized glutathione; type: in vivo, Eucalyptus globulus; conditions: for Rooting rate (%): 9 test pieces; for Number of rooted shoots: of 9 test pieces
Description: (§1) A base of the shoot thus obtained was planted to a foaming phenolic resin porous supporter (Manufactured by Smithers-Oasis Company; Product name: Oasis). […] The base of the shoot was cultured for two months in carbon dioxide gas of 1000 ppm at a temperature of 25° C. under irradiation of red light having photosynthesis photon flux density of 51.3 μmol/m^2/S and having a wavelength component of 650 nm to 670 nm to a wavelength component of 450 nm to 470 nm at a ratio of 8.2:1.8. The culturing was carried out with a culture container, which was a cube container (maximum size of about 10 cm to 11.5 cm in length×10 cm to 11.5 cm in width×10.0 cm in height) having a shape whose bulge was slightly protruded. […] Carbon dioxide gas outside the culture container was allowed to enter the culture container through this carbon dioxide gas permeable membrane covering the opening. Accordingly, carbon dioxide gas concentration inside the culture container was about 1000 ppm due to the permeation of the carbon dioxide gas through the film covering the opening of the culture container. The culture container was irradiated with red light by use of a light irradiation device (Product name: CCFL unit, maker's name: Nippon Medical& Chemical Instruments CO., LTD.). Further, humidity in the culture container is adjusted by sealing the culture container with Parafilm.
(§2) Nine shoots were planted per culture container. A rooting rate was calculated from the number of test pieces of the shoot and the number of shoots (the number of rooted shoots) which had been rooted after the foliage was cultured for two months.
The culture was carried out in the same way as Example 1, except that genetically modified E. globulus (Line name: Clone B) was used and a base of the shoot was wounded by a pair of scissors. Note that the base of the shoot (the aforementioned cross-sectional surface) was cut in two directions orthogonal to each other by use of a pair of scissors, and therefore the base was wounded so as to have a cross-shaped wound seen from a front direction.

E. globulus (Clone C) = test: as above; type: in vivo, Eucalyptus globulus; conditions: Example 16: 50 mg/L in medium
Description: as §1, §2

E. globulus (Clone D) = test: as above; type: in vivo, Eucalyptus globulus; conditions: Example 17: 50 mg/L in medium
Description: as §1, §2

E. globulus (Clone E) = test: as above; type: in vivo, Eucalyptus globulus; conditions: Example 18: 50 mg/L in medium
Description: as §1, §2

[1] = system: E. globulus (wild-type F); test: as above; type: in vivo, Eucalyptus globulus; conditions: Example 19: 50 mg/L in medium
Description: as §1, §2

[2] = Example 9: 500 mg/L, sprayed to phylloplane
[3] = Example 10: 1000 mg/L, sprayed to phylloplane

oxidized glutathione
Rooting rate (%) (E. uro-grandis B; Example 8: 200 mg/L, sprayed to phylloplane (about 1.1 ml per shoot), three weeks): 54.5%
Number of rooted shoots (E. uro-grandis B; Example 8: 200 mg/L, sprayed to phylloplane): 48
Rooting rate (%) (E. uro-grandis B; [2]): 59.1%
Number of rooted shoots (E. uro-grandis B; [2]): 52
Rooting rate (%) (E. uro-grandis B; [3]): 60.2%
Number of rooted shoots (E. uro-grandis B; [3]): 53
Rooting rate (%) (E. globulus (Clone B); Example 14: 25 mg/L in medium): 88.9%
Number of rooted shoots (E. globulus (Clone B); Example 14: 25 mg/L in medium): 8
Rooting rate (%) (E. globulus (Clone B); Example 15: 75 mg/L in medium): 77.8%
Number of rooted shoots (E. globulus (Clone B); Example 15: 75 mg/L in medium): 7
Rooting rate (%) (E. globulus (Clone C); 27 test pieces): 96.3%
Number of rooted shoots (E. globulus (Clone C); of 27 test pieces): 26
Rooting rate (%) (E. globulus (Clone D); 18 test pieces): 88.9%
Number of rooted shoots (E. globulus (Clone D); of 18 test pieces): 16
Rooting rate (%) (E. globulus (Clone E); 27 test pieces): 88.9%
Number of rooted shoots (E. globulus (Clone E); of 27 test pieces): 24
Rooting rate (%) ([1]; 18 test pieces): 100.0%
Number of rooted shoots ([1]; of 18 test pieces): 18
